Where only a bound is given, the exact number is not on record here.

The first test has as its system hypoxia-inducible endogenous VEGF expression. As to the kind of experiment: Hypoxia-inducible endogenous VEGF expression ELISA in HeLa cells, dose-response EC50 (Table 3). Format: cell-based, human. The note with it: Homo sapiens, HeLa, read-out: ELISA EC50 μM. In a few lines:
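HeLa cells kept 24-48 h under hypoxia (1% O2, 5% CO2, nitrogen balance) with or without compound, e.g. seven concentrations; secreted VEGF in conditioned medium quantified by ELISA against a standard curve. Parallel Cell Titer Glo viability under identical conditions excludes cytotoxicity.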
Turning to `O=C(Oc1ccc(Cl)cc1)N1CCc2c([nH]c3ccc(Cl)cc23)C1c1ccc(OCCCNCCO)cc1` (centres unmarked) [Compound 1183], the EC50 was below 0.008 µM.
For the compound `O=C(Oc1ccc(Cl)cc1)N1CCc2c([nH]c3ccc(Cl)cc23)C1c1ccc(OCCCN(CCO)CCO)cc1` (centres unmarked) [Compound 1184], the EC50 is below 0.008 µM.
Same read-out and setting: the result for `CCCN(CCC)CCCOc1ccc([C@H]2c3[nH]c4ccc(Cl)cc4c3CCN2C(=O)Oc2ccc(Cl)cc2)cc1` [Compound 1234] reads below 0.008 µM; that for `O=C(Oc1ccc(Cl)cc1)N1CCc2c([nH]c3ccc(Cl)cc23)[C@@H]1c1ccc(OCCCNC2CCCC2)cc1` [Compound 1235], 0.008 to 0.04 µM; that for `O=C(Oc1ccc(Cl)cc1)N1CCc2c([nH]c3ccc(Cl)cc23)[C@@H]1c1ccc(OCCCNC(CO)(CO)CO)cc1` [Compound 1255], 0.04 to 0.2 µM.
As for `O=C(Oc1ccc(Cl)cc1)N1CCc2c([nH]c3ccc(Cl)cc23)[C@@H]1c1ccc(OCCCNCCO)cc1` [Compound 1257], the EC50 fell in the range of 0.008 to 0.04 µM.
`O=C(Oc1ccc(Cl)cc1)N1CCc2c([nH]c3ccc(Cl)cc23)[C@@H]1c1ccc(OCCCN(CCO)CCO)cc1` [Compound 1258]: the EC50 is below 0.008 µM.
On to `O=C(Oc1ccc(Cl)cc1)N1CCc2c([nH]c3ccc(Cl)cc23)[C@@H]1c1ccc(OCCC(O)CN2CCOCC2)cc1` (some centres unmarked) [Compound 1279], for which the EC50 is below 0.008 µM.
For `O=C(Oc1ccc(Cl)cc1)N1CCc2c([nH]c3ccc(Cl)cc23)[C@@H]1c1ccc(OCCC(O)CN(CCO)CCO)cc1` (some centres unmarked) [Compound 1280], the EC50 is 0.008 to 0.04 µM.
For `Cc1ccc(OC(=O)N2CCc3c([nH]c4ccc(Cl)cc34)[C@@H]2c2ccc(OCCC(O)CN(CCO)CCO)cc2)cc1` (some centres unmarked) [Compound 1288], the EC50 lay in the range of 0.008 to 0.04 µM.
For the compound `Cc1ccc(OC(=O)N2CCc3c([nH]c4ccc(Cl)cc34)[C@@H]2c2ccc(OCCC(O)CN3CCOCC3)cc2)cc1` (some centres unmarked) [Compound 1302], the EC50 was in the range of 0.04 to 0.2 µM.

The test is the same for the next values; noted with them: Homo sapiens; HeLa cells, hypoxic conditions (1% O2), 24-48 hours, VEGF in conditioned media; read-out: ELISA EC50.
In the case of `O=C(Oc1ccc(Cl)cc1)N1CCc2c([nH]c3ccc(Cl)cc23)C1c1ccc(OCC[C@H](O)CO)cc1` (some centres unmarked) [Compound 1172], the EC50 was below 0.008 µM.
Same read-out and setting: the result for `O=C(Oc1ccccc1)N1CCc2c([nH]c3ccc(Cl)cc23)C1c1ccc(OCC[C@H](O)CO)cc1` (some centres unmarked) [Compound 1178] reads below 0.008 µM.
On to `O=C(Oc1ccc(F)cc1)N1CCc2c([nH]c3ccc(Cl)cc23)C1c1ccc(OCC[C@H](O)CO)cc1` (some centres unmarked) [Compound 1179], for which the EC50 is below 0.008 µM.
`Cc1ccc(OC(=O)N2CCc3c([nH]c4ccc(Cl)cc34)C2c2ccc(OCC[C@H](O)CO)cc2)cc1` (some centres unmarked) [Compound 1180]: the EC50 was below 0.008 µM.
In the case of `COc1ccc(OC(=O)N2CCc3c([nH]c4ccc(Cl)cc34)C2c2ccc(OCC[C@H](O)CO)cc2)cc1` (some centres unmarked) [Compound 1181], the half-maximal effective concentration (EC50) is below 0.008 µM.
As for `Cc1ccc(OC(=O)N2CCc3c([nH]c4ccc(Cl)cc34)[C@@H]2c2ccc(OCCCn3cncn3)cc2)cc1` [Compound 1182], the EC50 is below 0.008 µM.
Consider `COc1cc(C2c3[nH]c4ccc(Cl)cc4c3CCN2C(=O)Oc2ccc(C)cc2)ccc1OCCCn1nccn1` (centres unmarked) [Compound 1194], for which the half-maximal effective concentration (EC50) was below 0.008 µM.
As to `COc1ccc(C2c3[nH]c4ccc(Cl)cc4c3CCN2C(=O)Oc2ccc(F)cc2)cc1F` (centres unmarked) [Compound 1195], the EC50 fell in the range of 0.008 to 0.04 µM.
As to `COc1ccc(C2c3[nH]c4ccc(Cl)cc4c3CCN2C(=O)Oc2ccc(C)cc2)cc1F` (centres unmarked) [Compound 1196], the EC50 fell in the range of 0.008 to 0.04 µM.
Take `COc1ccc(OC(=O)N2CCc3c([nH]c4ccc(Cl)cc34)C2c2ccc(OC)c(F)c2)cc1` (centres unmarked) [Compound 1197]: the EC50 fell in the range of 0.008 to 0.04 µM.
Regarding `COc1ccc(C2c3[nH]c4ccc(Cl)cc4c3CCN2C(=O)Oc2ccc(Cl)cc2)cc1F` (centres unmarked) [Compound 1199], the EC50 lay within 0.008 to 0.04 µM.
Same read-out and setting: the result for `CC1(C)OC[C@H](CCOc2ccc([C@H]3c4[nH]c5ccc(Cl)cc5c4CCN3C(=O)Oc3ccc(Cl)cc3)cc2)O1` [Compound 1203] reads below 0.008 µM; that for `CC1(C)OCC(COc2ccc([C@H]3c4[nH]c5ccc(Cl)cc5c4CCN3C(=O)Oc3ccc(Cl)cc3)cc2)CO1` [Compound 1207], below 0.008 µM.
Still for that read-out and setting: to `O=C(Oc1ccc(Cl)cc1)N1CCc2c([nH]c3ccc(Cl)cc23)[C@@H]1c1ccc(OCC(CO)CO)cc1` [Compound 1209] belongs below 0.008 µM.
On to `NC(=O)COc1ccc(C2c3[nH]c4ccc(Cl)cc4c3CCN2C(=O)Oc2ccccc2Cl)cc1` (centres unmarked) [Compound 1213], for which the EC50 is 0.04 to 0.2 µM.
Consider `COc1ccc(OC(=O)N2CCc3c([nH]c4ccc(Cl)cc34)C2c2ccc(OCC(N)=O)cc2)cc1` (centres unmarked) [Compound 1216], for which the EC50 lay within 0.008 to 0.04 µM.
Take `O=C(Oc1ccc(Cl)cc1)N1CCc2c([nH]c3ccc(Cl)cc23)[C@@H]1c1ccc(OC[C@H](O)CO)cc1` [Compound 1223]: the EC50 is below 0.008 µM.
With `O=C(Oc1ccc(Cl)cc1)N1CCc2c([nH]c3ccc(Cl)cc23)[C@@H]1c1ccc(OC[C@@H](O)CO)cc1` [Compound 1224], the EC50 was below 0.008 µM.
Turning to `COCC(=O)NCC(O)COc1ccc(C2c3[nH]c4ccc(Cl)cc4c3CCN2C(=O)Oc2ccc(Cl)cc2)cc1` (centres unmarked) [Compound 1225], the EC50 was in the range of 0.008 to 0.04 µM.
`CC1(C)OC[C@H](COc2ccc([C@H]3c4[nH]c5ccc(Cl)cc5c4CCN3C(=O)Oc3ccc(Cl)cc3)cc2)O1` [Compound 1227]: the EC50 is below 0.008 µM.
For the compound `CCOC(COc1ccc(C2c3[nH]c4ccc(Cl)cc4c3CCN2C(=O)Oc2ccc(Cl)cc2)cc1)OCC` (centres unmarked) [Compound 1228], the EC50 was below 0.008 µM.
As to `CC1(COc2ccc([C@H]3c4[nH]c5ccc(Cl)cc5c4CCN3C(=O)Oc3ccc(Cl)cc3)cc2)COC(C)(C)OC1` [Compound 1229], the EC50 is below 0.008 µM.
Consider `CC(CO)(CO)COc1ccc([C@H]2c3[nH]c4ccc(Cl)cc4c3CCN2C(=O)Oc2ccc(Cl)cc2)cc1` [Compound 1230], for which the EC50 is below 0.008 µM.
In the case of `O=C(Oc1ccc(Cl)cc1)N1CCc2c([nH]c3ccc(Cl)cc23)C1c1ccc(OC(CO)CO)cc1` (centres unmarked) [Compound 1231], the EC50 lay within 0.008 to 0.04 µM.
For `O=C(Oc1ccc(Cl)cc1)N1CCc2c([nH]c3ccc(Cl)cc23)[C@@H]1c1ccc(OCCCO)cc1` [Compound 1250], the EC50 is below 0.008 µM.
Still for that read-out and setting: to `O=C(Oc1ccc(Cl)cc1)N1CCc2c([nH]c3ccc(Cl)cc23)[C@@H]1c1ccc(OC(CO)CO)cc1` [Compound 1259] belongs 0.008 to 0.04 µM; to `CC1(C)OC[C@@H](COc2ccc([C@H]3c4[nH]c5ccc(Cl)cc5c4CCN3C(=O)Oc3ccc(Cl)cc3)cc2)O1` [Compound 1260], below 0.008 µM; to `O=C(Oc1ccc(Cl)cc1)N1CCc2c([nH]c3ccc(Cl)cc23)[C@@H]1c1ccc(OCC2(CO)COCOC2)cc1` [Compound 1263], below 0.008 µM.
As to `COc1ccc(C2c3[nH]c4ccc(Cl)cc4c3CCN2C(=O)Oc2ccc(F)cc2)c(F)c1` (centres unmarked) [Compound 1265], the half-maximal effective concentration (EC50) is 0.008 to 0.04 µM.
For the compound `COc1ccc(C2c3[nH]c4ccc(Cl)cc4c3CCN2C(=O)Oc2ccc(C)cc2)c(F)c1` (centres unmarked) [Compound 1266], the 50% effective concentration (EC50) is below 0.008 µM.
Take `COc1ccc(OC(=O)N2CCc3c([nH]c4ccc(Cl)cc34)C2c2ccc(OC)cc2F)cc1` (centres unmarked) [Compound 1267]: the EC50 is 0.008 to 0.04 µM.
Still for that read-out and setting: the result for `COc1ccc(C2c3[nH]c4ccc(Cl)cc4c3CCN2C(=O)Oc2ccc(Cl)cc2)c(F)c1` (centres unmarked) [Compound 1269] reads below 0.008 µM; that for `CC(=O)NCC(O)CCOc1ccc([C@H]2c3[nH]c4ccc(Cl)cc4c3CCN2C(=O)Oc2ccc(Cl)cc2)cc1` (some centres unmarked) [Compound 1276], below 0.008 µM; that for `CC(=O)NCC(CCOc1ccc([C@H]2c3[nH]c4ccc(Cl)cc4c3CCN2C(=O)Oc2ccc(Cl)cc2)cc1)OC(C)=O` (some centres unmarked) [Compound 1277], below 0.008 µM.
As for `COCC(=O)NCC(O)CCOc1ccc([C@H]2c3[nH]c4ccc(Cl)cc4c3CCN2C(=O)Oc2ccc(Cl)cc2)cc1` (some centres unmarked) [Compound 1278], the concentration giving a half-maximal response (EC50) was below 0.008 µM.
Take `O=C(Oc1ccc(Cl)cc1)N1CCc2c([nH]c3ccc(Cl)cc23)[C@@H]1c1ccc(OCCC(O)Cn2ccnn2)cc1` (some centres unmarked) [Compound 1281]: the EC50 was below 0.008 µM.
With `O=C(Oc1ccc(Cl)cc1)N1CCc2c([nH]c3ccc(Cl)cc23)[C@@H]1c1ccc(OCCC(O)Cn2cncn2)cc1` (some centres unmarked) [Compound 1282], the EC50 is below 0.008 µM.
The same measure, in the same setting: the result for `Cc1ccc(OC(=O)N2CCc3c([nH]c4ccc(Cl)cc34)[C@@H]2c2ccc(OCCC(O)Cn3ccnn3)cc2)cc1` (some centres unmarked) [Compound 1289] reads below 0.008 µM.
For the compound `Cc1ccc(OC(=O)N2CCc3c([nH]c4ccc(Cl)cc34)[C@@H]2c2ccc(OCCC(O)Cn3nccn3)cc2)cc1` (some centres unmarked) [Compound 1290], the EC50 is below 0.008 µM.
With `Cc1ccc(OC(=O)N2CCc3c([nH]c4ccc(Cl)cc34)[C@@H]2c2ccc(OCCC(O)Cn3cncn3)cc2)cc1` (some centres unmarked) [Compound 1291], the EC50 was in the range of 0.008 to 0.04 µM.
For `Cc1ccc(OC(=O)N2CCc3c([nH]c4ccc(Cl)cc34)[C@@H]2c2ccc(OCC[C@H](O)CO)cc2)cc1` [Compound 1292], the EC50 is below 0.008 µM.
For the compound `O=C(Oc1ccc(F)cc1)N1CCc2c([nH]c3ccc(Cl)cc23)[C@@H]1c1ccc(OCC[C@H](O)CO)cc1` [Compound 1293], the EC50 was below 0.008 µM.
On the same count and under the same terms, to `Cc1ccc(OC(=O)N2CCc3c([nH]c4ccc(Cl)cc34)[C@@H]2c2ccc(OCC(C)(CO)CO)cc2)cc1` [Compound 1297] belongs 0.008 to 0.04 µM; to `O=C(Oc1ccccc1)N1CCc2c([nH]c3ccc(Cl)cc23)[C@@H]1c1ccc(OCC[C@H](O)CO)cc1` [Compound 1299], below 0.008 µM.
As to `COc1ccc(OC(=O)N2CCc3c([nH]c4ccc(Cl)cc34)[C@@H]2c2ccc(OCC[C@H](O)CO)cc2)cc1` [Compound 1300], the EC50 was below 0.008 µM.
Consider `COCC(=O)NCC(O)CCOc1ccc([C@H]2c3[nH]c4ccc(Cl)cc4c3CCN2C(=O)Oc2ccc(C)cc2)cc1` (some centres unmarked) [Compound 1301], for which the EC50 was in the range of 0.008 to 0.04 µM.

The test is the same for the next values; noted with them: Homo sapiens; HeLa cells, hypoxic conditions (1% O2), VEGF ELISA of conditioned media; read-out: ELISA EC50.
With `CCC(CO)(CO)COc1ccc([C@H]2c3[nH]c4ccc(Cl)cc4c3CCN2C(=O)Oc2ccc(F)cc2)cc1` [Compound 1328], the EC50 is below 0.008 µM.
`CCC(CO)(CO)COc1ccc([C@H]2c3[nH]c4ccc(Cl)cc4c3CCN2C(=O)Oc2ccc(Cl)cc2)cc1` [Compound 1329]: the concentration for a half-maximal effect (EC50) is below 0.008 µM.

These data come from US20120157401A1, “METHODS FOR TREATING NEUROFIBROMATOSIS” (PTC Therapeutics, Inc., priority 2009, published 2012).
